Experimental data: patent US7776882B2, “2-amino-3,4-dihydro-quinoline derivatives useful as inhibitors of β-secretase (BACE)” (priority 2006, dated 2010)

How the values were obtained:
[1] = target: T1, human BACE-1 (Homo sapiens, UniProt P56817); experiment: In Vitro BACE Assay run by CEREP (Example 14); assay type: biochemical; settings: recombinant enzyme, 60 min at 37° C., pH 4.5; for % Inhibition 1 μM / inhibition at 1 µM: 1 μM compound; for inhibition at 0.3 µM / % Inhibition 0.3 μM: 0.3 μM compound
T1 construct: purchased CEREP (contract assay) 761-B
Experimental: This assay was run by CEREP (Catalog Ref. 761-B, Referred to SOP No. 1C131; ERMOLIEFF, J., LOY, J. A., KOELSCH, G. and TANG, J., Proteolytic activation of recombinant pro-memapsin 2 (pro-BACE) studied with new fluorogenic substrates, Biochemistry, (2000) Vol. 39, p. 12450).
More specifically the assay, run at 50 μL in a 96 well plate, evaluated the effect of test compound on the activity of the human BACE-1 quantified by measuring the formation of Mca-S-E-V-N-L-NH2 from Mca-S-E-V-N-L-D-A-E-F-R-K(Dnp)-R-R-NH2, using a recombinant enzyme.
The test compound, reference compound or water (control) was added to a buffer containing 0.09 M sodium acetate (pH 4.5) and 0.25 μg BACE-1. Compound interference with the fluorimetric detection method due to autofluorescence was then checked by measurements at the wavelengths defined to evaluate the enzyme activity. Thereafter, the reaction was initiated by adding 7.5 μM of the substrate Mca-S-E-V-N-L-D-A-E-F-R-K(Dnp)-R-R-NH2 and the mixture was incubated for 60 min at 37° C. For control basal measurement, the substrate was omitted from the reaction mixture. Immediately after the incubation, the fluorescence intensity emitted by the reaction product Mca-S-E-V-N-L-NH2 was measured at λex=320 nm and λem=405 nm using a microplate reader (Ultra, Tecan). The standard inhibitory reference compound was OM99-2, which was tested in each experiment at several concentrations to obtain an inhibition curve from which its IC50 value was calculated.

[2] = target: T2, β-secretase (BACE) (Homo sapiens, UniProt P56817); experiment: In Vitro BACE FS1 % Inhibition Assay (Example 10); assay type: biochemical; settings: FS1 substrate, values below about 25% (including negative) within noise; for % Inhibition (Example 10) @ 0.3 μM: 0.3 μM compound; for % Inhibition (Example 10) @ 1 μM: 1 μM compound; for % Inhibition (Example 10) @ 3 μM: 3 μM compound
T2 construct: purchased Panvera
Experimental: The following assay buffers were prepared and used in this assay: (1) enzyme assay buffer (0.05 M sodium acetate, pH5, 0.1% PEG8000 (w/v)), (2) substrate assay buffer (0.05 M sodium acetate, pH5), and (3) compound vehicle (30% DMSO in 50 mM HEPES, pH 7.4).
The FS1-substrate stock solution was prepared in DMSO as a 10 mg/mL solution. The FS1-substrate working solution was prepared by diluting the 10 mg/mL stock solution with substrate assay buffer to a final concentration of 300 μg/mL. The β-secretase (BACE) working solution was prepared by diluting a 0.83 mg/mL BACE stock solution with enzyme assay buffer to a final concentration of 4 μg/mL.
Test compounds were dissolved in DMSO to 10 mM. Compounds were further diluted in vehicle to various concentrations in the range of 405 μM to 4.05 μM (13.5×final compound concentration in screening plate).
The screening procedure for this assay was as follows: 15 μL of BACE working solution was pipetted into each well of a 96-well plate. To each well was then pipetted 2 μL of test compound at the selected concentration. Test compound and BACE were then mixed with a pipettor and incubated for 20 min at room temperature. To each well was then added 10 μL of the FS1 substrate working solution. The plates were then incubated for 1 hour at room temperature. The fluorescence for each well was then measured on an LJL analyst (Ex 360 nm/Em 530 nm).
The procedure for the blank (negative control) was as follows. 15 μL of assay buffer was pipetted into each well to be used as a blank control. To each well was then added 2 μL of vehicle and 10 μL of FS1-substrate working solution. The plates were then incubated for 1 hour at room temperature. The fluorescence was measured on an LJL analyst (Ex 360 nm/Em 530 nm).
The procedure for the positive control was as follows: 15 μL of BACE working solution was pipetted into each well to be used as a positive control. To each well was then pipetted 2 μL of vehicle. Vehicle and BACE were then mixed with a pipettor and incubated for 20 min at room temperature. To each well was then added 10 μL of the FS1 substrate working solution. The plates were then incubated for 1 hour at room temperature. The fluorescence (Fl) was then measured on an LJL analyst (Ex 360 nm/Em 530 nm).
For test compounds, % inhibition was determined at each concentration as follows: […]

T1 sequence (P56817 46-501): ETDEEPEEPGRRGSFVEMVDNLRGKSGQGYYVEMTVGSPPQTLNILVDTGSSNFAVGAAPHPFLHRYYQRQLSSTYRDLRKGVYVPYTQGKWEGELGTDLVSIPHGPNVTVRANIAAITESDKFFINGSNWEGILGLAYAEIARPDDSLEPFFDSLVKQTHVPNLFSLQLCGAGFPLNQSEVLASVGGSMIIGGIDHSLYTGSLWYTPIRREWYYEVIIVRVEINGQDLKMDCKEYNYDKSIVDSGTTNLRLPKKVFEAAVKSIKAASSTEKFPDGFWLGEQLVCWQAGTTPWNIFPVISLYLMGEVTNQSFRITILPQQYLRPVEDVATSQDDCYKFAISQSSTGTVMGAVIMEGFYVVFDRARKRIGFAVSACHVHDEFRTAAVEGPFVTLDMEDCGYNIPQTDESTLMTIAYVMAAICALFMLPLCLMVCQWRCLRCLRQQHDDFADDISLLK
T2 sequence (P56817 46-501): as above

## Nc1nc2ccc(Oc3ccccc3)cc2cc1C(CCC(=O)NC1CN2CCC1CC2)C1CCOCC1 (mixture of isomers) [compound 52]
[1]
  % Inhibition 1 μM: 6%

## Nc1nc2ccc(Oc3ccccc3)cc2cc1CCNC(=O)C1CCCCC1 [compound 4]
[2]
  % Inhibition (Example 10) @ 0.3 μM: 14%
  % Inhibition (Example 10) @ 1 μM: 9%
  % Inhibition (Example 10) @ 3 μM: 42%

## COCCNC(=O)CCc1cc2cc(Oc3ccccc3)ccc2nc1N [compound 5]
[2]
  % Inhibition (Example 10) @ 0.3 μM: 22%
  % Inhibition (Example 10) @ 1 μM: 41%
  % Inhibition (Example 10) @ 3 μM: 37%

## CCN(CC)CCNC(=O)CCc1cc2cc(Oc3ccccc3)ccc2nc1N [compound 10]
[2]
  % Inhibition (Example 10) @ 0.3 μM: −11%
  % Inhibition (Example 10) @ 1 μM: −13%
  % Inhibition (Example 10) @ 3 μM: −0.3%

## Nc1nc2ccc(Oc3ccccc3)cc2cc1CCC(=O)NCC1CCCCC1 [compound 11]
[2]
  % Inhibition (Example 10) @ 1 μM: 5%
  % Inhibition (Example 10) @ 3 μM: 81%

## CCCCNC(=O)CCc1cc2cc(Oc3ccccc3)ccc2nc1N [compound 12]
[2]
  % Inhibition (Example 10) @ 0.3 μM: −2%
  % Inhibition (Example 10) @ 1 μM: 0.8%
  % Inhibition (Example 10) @ 3 μM: 19%

## Nc1nc2ccc(Oc3ccccc3)cc2cc1CCC(=O)N[C@H](CO)CC1CCCCC1 [compound 14]
[2]
  % Inhibition (Example 10) @ 0.3 μM: −14%
  % Inhibition (Example 10) @ 1 μM: −27%
  % Inhibition (Example 10) @ 3 μM: −15%

## Nc1nc2ccc(Oc3ccccc3)cc2cc1CCCC(=O)NC12CC3CC(CC(C3)C1)C2 [compound 17]
[2]
  % Inhibition (Example 10) @ 0.3 μM: 19%
  % Inhibition (Example 10) @ 1 μM: 20%
  % Inhibition (Example 10) @ 3 μM: 46%

## CN(C(=O)CCCc1cc2cc(Oc3ccccc3)ccc2nc1N)C1CCCCC1 [compound 18]
[2]
  % Inhibition (Example 10) @ 0.3 μM: 29%
  % Inhibition (Example 10) @ 1 μM: 26%
  % Inhibition (Example 10) @ 3 μM: 36%

## COC(=O)[C@H]1CC[C@@H](NC(=O)CCC(c2cc3cc(Oc4ccccc4)ccc3nc2N)C2CCCCC2)CC1 (stereo partly drawn) [compound 19]
[2]
  % Inhibition (Example 10) @ 0.3 μM: −15%
  % Inhibition (Example 10) @ 3 μM: 24%

## COC(=O)[C@H]1CC[C@H](NC(=O)CCC(c2cc3cc(Oc4ccccc4)ccc3nc2N)C2CCCCC2)CC1 (stereo partly drawn) [compound 20]
[2]
  % Inhibition (Example 10) @ 0.3 μM: −8%
  % Inhibition (Example 10) @ 1 μM: −11%
  % Inhibition (Example 10) @ 3 μM: 34%

## Nc1nc2ccc(Oc3ccccc3)cc2cc1C(CCC(=O)N[C@H]1CC[C@@H](C(=O)O)CC1)C1CCCCC1 (stereo partly drawn) [compound 21]
[2]
  % Inhibition (Example 10) @ 0.3 μM: 0.5%
  % Inhibition (Example 10) @ 1 μM: −1%
  % Inhibition (Example 10) @ 3 μM: 10%

## Nc1nc2ccc(Oc3ccccc3)cc2cc1C(CCC(=O)N[C@H]1CC[C@H](C(=O)O)CC1)C1CCCCC1 (stereo partly drawn) [compound 22]
[2]
  % Inhibition (Example 10) @ 0.3 μM: 0.6%
  % Inhibition (Example 10) @ 1 μM: −19%
  % Inhibition (Example 10) @ 3 μM: −3%

## Nc1nc2ccc(Oc3ccccc3)cc2cc1C(CCC(=O)N(Cc1ncc[nH]1)C1CCCCC1)C1CCOCC1 (stereo not drawn) [compound 30]
[1]
  inhibition at 1 µM: 91%
  IC50: 410 nM

## Nc1nc2ccc(Oc3ccccc3)cc2cc1C(CCC(=O)NCc1nnnn1Cc1ccccc1)C1CCOCC1 (stereo not drawn) [compound 31]
[1]
  inhibition at 0.3 µM: 32%
  inhibition at 1 µM: 59%
  IC50: 740 nM

## Nc1nc2ccc(Oc3ccccc3)cc2cc1C(CCC(=O)NCC1CC1)C1CCOCC1 (stereo not drawn) [compound 36]
[1]
  inhibition at 0.3 µM: 49%
  inhibition at 1 µM: 59%
  IC50: 610 nM

## Nc1nc2ccc(Oc3ccccc3)cc2cc1C(CCC(=O)N(CCN1CCCC1)C1CCCCC1)C1CCCCC1 (stereo not drawn) [compound 37]
[1]
  inhibition at 0.3 µM: 27%
  inhibition at 1 µM: 81%
  IC50: 580 nM

## CN(Cc1ccccc1)C(=O)CCC(c1cc2cc(Oc3ccccc3)ccc2nc1N)C1CCCCC1 (stereo not drawn) [compound 38]
[1]
  % Inhibition 0.3 μM: 8%
  % Inhibition 1 μM: 9%

## Cn1ccnc1CN(C(=O)CCC(c1cc2cc(Oc3ccccc3)ccc2nc1N)C1CCCCC1)C1CCCCC1 (stereo not drawn) [compound 39]
[1]
  inhibition at 0.3 µM: 16%
  IC50: 490 nM

## CN(CC1CCCCC1)C(=O)CCC(c1cc2cc(Oc3ccccc3)ccc2nc1N)C1CCCCC1 (stereo not drawn) [compound 40]
[1]
  % Inhibition 0.3 μM: 13%
  % Inhibition 1 μM: 54%
  IC50: 650 nM

## Nc1nc2ccc(Oc3ccccc3)cc2cc1C(CCC(=O)N(c1ncc[nH]1)C1CCCCC1)C1CCCCC1 (stereo not drawn) [compound 41]
[1]
  inhibition at 0.3 µM: 11%
  inhibition at 1 µM: 79%
  IC50: 470 nM

## Nc1nc2ccc(Oc3ccccc3)cc2cc1C(CCC(=O)N(CCO)C1CCCCC1)C1CCCCC1 (stereo not drawn) [compound 42]
[1]
  inhibition at 1 µM: 58%
  IC50: 810 nM

## Cn1ccnc1CN(CC(C)(C)C)C(=O)CCC(c1cc2cc(Oc3ccccc3)ccc2nc1N)C1CCCCC1 (stereo not drawn) [compound 43]
[1]
  inhibition at 1 µM: 88%
  IC50: 650 nM

## CC(C)(C)OC[C@@H](NC(=O)CC[C@H](c1cc2cc(Oc3ccccc3)ccc2nc1N)C1CCCCC1)C(=O)N1CCOCC1 [compound 45]
[1]
  inhibition at 1 µM: 46%
  IC50: 1100 nM

## Nc1nc2ccc(Oc3ccccc3)cc2cc1C(CCC(=O)N(CCO)C1CCCCC1)C1CCOCC1 (stereo not drawn) [compound 50]
[1]
  % Inhibition 1 μM: 87%
  IC50: 740 nM

## Nc1nc2ccc(Oc3ccccc3)cc2cc1C(CCC(=O)NC1CN2CCC1CC2)C1CCOCC1 (stereo not drawn) [compound 51]
[1]
  inhibition at 1 µM: 56%
  IC50: 1200 nM

## Nc1nc2ccc(Oc3ccccc3)cc2cc1C(CCC(=O)N(Cc1c[nH]cn1)C1CCCCC1)C1CCOCC1 (stereo not drawn) [compound 53]
[1]
  inhibition at 1 µM: 90%
  IC50: 460 nM

## Cn1ccnc1CN(C(=O)CCC(c1cc2cc(Oc3ccccc3)ccc2nc1N)C1CCOCC1)C1CCCCC1 (stereo not drawn) [compound 54]
[1]
  inhibition at 1 µM: 85%
  IC50: 450 nM

## Cn1ccnc1CN(CC(C)(C)C)C(=O)CCC(c1cc2cc(Oc3ccccc3)ccc2nc1N)C1CCOCC1 (stereo not drawn) [compound 55]
[1]
  inhibition at 1 µM: 83%
  IC50: 420 nM

## Cn1ccnc1CN(CCC(C)(C)C)C(=O)CCC(c1cc2cc(Oc3ccccc3)ccc2nc1N)C1CCOCC1 (stereo not drawn) [compound 56]
[1]
  % Inhibition 1 μM: 94%

## CC(C)(C)CCN(Cc1ncc[nH]1)C(=O)CCC(c1cc2cc(Oc3ccccc3)ccc2nc1N)C1CCOCC1 (stereo not drawn) [compound 57]
[1]
  % Inhibition 1 μM: 93%

## CC(C)(C)CN(Cc1ncc[nH]1)C(=O)CCC(c1cc2cc(Oc3ccccc3)ccc2nc1N)C1CCOCC1 (stereo not drawn) [compound 58]
[1]
  % Inhibition 1 μM: 88%

## CC(C)(C)CN(Cc1c[nH]cn1)C(=O)CCC(c1cc2cc(Oc3ccccc3)ccc2nc1N)C1CCOCC1 (stereo not drawn) [compound 59]
[1]
  % Inhibition 1 μM: 78%

## Cc1ccccc1N1CCN(C(=O)CCc2cc3cc(Oc4ccccc4)ccc3nc2N)CC1 [compound 75]
[2]
  % Inhibition (Example 10) @ 0.3 μM: 24%
  % Inhibition (Example 10) @ 1 μM: −8%
  % Inhibition (Example 10) @ 3 μM: 17%

## Nc1nc2ccc(Oc3ccccc3)cc2cc1CCC(=O)N1CCN(c2cccc(F)c2)CC1 [compound 76]
[2]
  % Inhibition (Example 10) @ 0.3 μM: 28%
  % Inhibition (Example 10) @ 3 μM: 16%

## C=CCC(c1cc2cc(Oc3ccccc3)ccc2nc1N)C1CCCCC1 (stereo not drawn) [compound 503]
[2]
  % Inhibition (Example 10) @ 0.3 μM: 28%
  % Inhibition (Example 10) @ 1 μM: 19%
  % Inhibition (Example 10) @ 3 μM: 36%

## COC(=O)CCCc1cc2cc(Oc3ccccc3)ccc2nc1N [compound 504]
[2]
  % Inhibition (Example 10) @ 0.3 μM: 21%
  % Inhibition (Example 10) @ 1 μM: 21%
  % Inhibition (Example 10) @ 3 μM: 18%
